How the values were obtained:
Assay in all cases: relative viability (nuclei count vs DMSO), 5 days (fraction); higher = more cells survive
AZ505 + Pemetrexed = compound: C1CCC(CC1)N(CCNCCC2=C3C(=C(C=C2)O)NC(=O)CO3)C(=O)CCNCCC4=CC(=C(C=C4)Cl)Cl [AZ505] + Nc1nc2[nH]cc(CCc3ccc(C(=O)N[C@@H](CCC(=O)O)C(=O)O)cc3)c2c(=O)[nH]1 [Pemetrexed] (partner 0.2 µM)
Outline: (§1)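 Each reported value is a median over duplicate plates. It expresses relative viability: treated-well nuclei count divided by vehicle-well nuclei count. Lung cancer cell lines in 1536-well plates were dosed by pin tool a day after seeding, alone with one drug or with a fixed anchor-drug dose plus five library-drug doses (not always all listed) in √10 steps, and nuclei were counted after 5 days.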

Dactolisib + Trametinib = compound: Cn1c(=O)n(-c2ccc(C(C)(C)C#N)cc2)c2c3cc(-c4cnc5ccccc5c4)ccc3ncc21 [Dactolisib] + CC(=O)Nc1cccc(-n2c(=O)n(C3CC3)c(=O)c3c(Nc4ccc(I)cc4F)n(C)c(=O)c(C)c32)c1 [Trametinib] (partner 0.02 µM)
Outline: as §1

Dactolisib + Foretinib = compound: Cn1c(=O)n(-c2ccc(C(C)(C)C#N)cc2)c2c3cc(-c4cnc5ccccc5c4)ccc3ncc21 [Dactolisib] + COc1cc2c(Oc3ccc(NC(=O)C4(C(=O)Nc5ccc(F)cc5)CC4)cc3F)ccnc2cc1OCCCN1CCOCC1 [Foretinib] (partner 0.25 µM)
Outline: as §1

Dactolisib + Pemetrexed = compound: Cn1c(=O)n(-c2ccc(C(C)(C)C#N)cc2)c2c3cc(-c4cnc5ccccc5c4)ccc3ncc21 [Dactolisib] + Nc1nc2[nH]cc(CCc3ccc(C(=O)N[C@@H](CCC(=O)O)C(=O)O)cc3)c2c(=O)[nH]1 [Pemetrexed] (partner 0.2 µM)
Outline: as §1

Cell Line	relative viability (AZ505 + Pemetrexed; first compound 0.08 µM)	relative viability (AZ505 + Pemetrexed; first compound 0.253 µM)	relative viability (AZ505 + Pemetrexed; first compound 0.8 µM)	relative viability (AZ505 + Pemetrexed; first compound 2.53 µM)	relative viability (AZ505 + Pemetrexed; first compound 8 µM)	relative viability (Dactolisib + Trametinib; first compound 0.002 µM)	relative viability (Dactolisib + Trametinib; first compound 0.006325 µM)	relative viability (Dactolisib + Trametinib; first compound 0.02 µM)	relative viability (Dactolisib + Trametinib; first compound 0.06325 µM)	relative viability (Dactolisib + Trametinib; first compound 0.2 µM)	relative viability (Dactolisib + Foretinib; first compound 0.002 µM)	relative viability (Dactolisib + Foretinib; first compound 0.006325 µM)	relative viability (Dactolisib + Foretinib; first compound 0.02 µM)	relative viability (Dactolisib + Foretinib; first compound 0.06325 µM)	relative viability (Dactolisib + Foretinib; first compound 0.2 µM)	relative viability (Dactolisib + Pemetrexed; first compound 0.002 µM)	relative viability (Dactolisib + Pemetrexed; first compound 0.006325 µM)	relative viability (Dactolisib + Pemetrexed; first compound 0.02 µM)	relative viability (Dactolisib + Pemetrexed; first compound 0.06325 µM)	relative viability (Dactolisib + Pemetrexed; first compound 0.2 µM)
NCI-H2170	0.254	0.257	0.238	0.253	0.264	0.925	0.881	0.845	0.478	0.35	0.995	1.01	0.895	0.85	0.174	0.262	0.258	0.281	0.261	0.263
NCI-H2347	0.392	0.367	0.428	0.387	0.428	0.277	0.262	0.263	0.158	0.295	0.848	1	0.693	0.765	0.486	0.459	0.459	0.426	0.411	0.422
NCI-H1993	0.63	0.66	0.568	0.651	0.677	0.514	0.455	0.504	0.389	0.421	0.706	0.774	0.61	0.473	0.492	0.554	0.496	0.49	0.345	0.421
NCI-H322M	0.604	–	0.61	0.647	0.648	0.583	0.561	0.447	0.436	0.44	1.08	0.89	0.73	0.629	0.578	0.664	0.641	0.643	0.523	0.474
NCI-H838	0.251	0.253	0.252	0.246	0.221	0.456	0.35	0.34	0.179	0.145	1.1	0.876	0.606	0.288	0.342	0.25	0.227	0.264	0.203	0.165
HARA	0.208	–	0.213	0.24	0.228	0.872	0.549	0.732	0.259	0.218	1.12	0.878	0.771	0.763	0.225	0.242	0.22	0.3	0.235	0.223
NCI-H2087	0.616	0.614	0.691	0.741	0.696	0.229	0.217	0.214	0.127	0.114	0.979	0.919	0.817	0.378	0.33	0.627	0.684	0.625	0.521	0.506
NCI-H1437	0.334	0.314	0.29	0.336	0.322	0.558	0.507	0.487	0.369	0.292	1.37	1.28	1.25	1.24	1.34	0.309	0.347	0.312	0.27	0.227
ChaGo-K-1	0.26	0.268	0.28	0.252	0.258	0.846	0.912	0.91	0.813	0.791	0.908	0.919	0.886	0.835	0.926	0.27	0.261	0.255	0.256	0.247
NCI-H650	0.86	0.875	1.01	1.12	0.881	1.04	0.906	0.942	0.527	0.424	0.981	1.02	1.05	0.712	0.426	1	0.815	0.897	0.723	0.47
COR-L23	0.185	0.204	0.201	0.185	0.186	0.602	0.453	0.305	0.176	0.144	1.2	0.982	0.948	0.369	0.34	0.194	0.198	0.195	0.197	0.183
COR-L 105	0.979	1.05	1.06	1.1	1.14	0.43	0.413	0.4	0.425	0.394	0.926	1	0.832	0.859	0.417	1.22	1.25	0.891	0.892	0.356
LK-2	0.215	0.254	0.294	0.283	0.313	0.609	0.761	0.554	0.225	0.21	1.19	0.997	0.766	0.444	0.196	0.278	0.263	0.249	0.117	0.171
201T	0.343	0.342	0.403	0.345	0.31	0.73	0.713	0.688	0.668	0.449	0.916	1.11	1.06	0.636	0.491	0.329	0.295	0.292	0.272	0.247
NCI-H596	0.463	–	0.469	0.564	0.483	0.776	0.7	0.496	0.491	0.298	0.83	0.809	0.473	0.316	0.242	0.457	0.428	0.513	0.41	0.401
H3255	0.521	0.556	0.602	0.571	0.616	0.657	0.58	0.507	0.539	0.455	0.989	0.851	0.793	0.724	0.772	0.568	0.44	0.558	0.464	0.474

Cell Line	relative viability (AZ505 + Pemetrexed; first compound 0.08 µM)	relative viability (AZ505 + Pemetrexed; first compound 0.253 µM)	relative viability (AZ505 + Pemetrexed; first compound 0.8 µM)	relative viability (AZ505 + Pemetrexed; first compound 2.53 µM)	relative viability (AZ505 + Pemetrexed; first compound 8 µM)	relative viability (Dactolisib + Trametinib; first compound 0.002 µM)	relative viability (Dactolisib + Trametinib; first compound 0.006325 µM)	relative viability (Dactolisib + Trametinib; first compound 0.02 µM)	relative viability (Dactolisib + Trametinib; first compound 0.06325 µM)	relative viability (Dactolisib + Trametinib; first compound 0.2 µM)	relative viability (Dactolisib + Foretinib; first compound 0.002 µM)	relative viability (Dactolisib + Foretinib; first compound 0.006325 µM)	relative viability (Dactolisib + Foretinib; first compound 0.02 µM)	relative viability (Dactolisib + Foretinib; first compound 0.06325 µM)	relative viability (Dactolisib + Foretinib; first compound 0.2 µM)	relative viability (Dactolisib + Pemetrexed; first compound 0.002 µM)	relative viability (Dactolisib + Pemetrexed; first compound 0.006325 µM)	relative viability (Dactolisib + Pemetrexed; first compound 0.02 µM)	relative viability (Dactolisib + Pemetrexed; first compound 0.06325 µM)	relative viability (Dactolisib + Pemetrexed; first compound 0.2 µM)
NCI-H647	0.158	0.155	0.195	0.196	0.184	0.381	0.42	0.291	0.118	0.103	1.15	1.18	1.16	0.211	0.395	0.144	0.172	0.194	0.154	0.101
NCI-H2023	0.219	0.221	0.244	0.221	0.244	0.582	0.461	0.304	0.103	0.0921	–	0.672	0.491	0.343	0.153	0.172	0.182	0.179	0.101	0.0876
NCI-H23	0.638	0.506	0.604	0.73	0.668	0.468	0.361	0.276	0.229	0.179	1.17	0.997	0.69	0.456	0.413	0.635	0.635	0.563	0.289	0.296
NCI-H1944	0.748	0.558	0.796	0.499	0.597	0.429	0.408	0.364	0.23	0.22	1.13	0.914	0.852	0.425	0.392	0.461	0.564	0.585	0.286	0.244
NCI-H1793	0.863	0.756	0.878	0.851	1.06	0.418	0.359	0.244	0.231	0.196	0.655	0.416	0.241	0.2	0.166	0.751	0.409	0.266	0.214	0.168
NCI-H520	0.483	0.684	0.777	0.81	0.875	0.61	0.585	0.354	0.147	0.102	0.736	0.507	0.464	0.278	0.198	0.537	0.506	0.364	0.213	0.115
NCI-H460	0.063	0.0565	0.0644	0.0703	0.0621	0.2	0.0901	0.13	0.0463	0.0358	1.03	1	1.03	0.493	0.407	0.0654	0.0618	0.0641	0.0892	0.0591
EKVX	–	0.385	0.384	0.41	0.403	0.368	0.377	0.258	0.229	0.213	0.598	0.743	0.652	0.715	0.568	0.248	0.357	0.387	0.356	0.294
NCI-H358	0.177	0.227	0.158	0.179	0.184	0.123	0.149	0.124	0.104	0.106	0.738	0.769	0.623	0.312	0.165	0.164	0.164	0.159	0.134	0.14
EPLC-272H	0.246	0.318	0.254	0.245	0.232	0.264	0.261	0.28	0.245	0.201	0.623	0.491	0.467	0.308	0.236	0.214	0.333	0.294	0.36	0.314
NCI-H1395	0.919	–	0.733	0.969	1.04	0.867	0.889	0.93	0.637	0.487	1.03	0.916	0.942	0.636	0.537	0.537	0.883	0.705	0.722	0.521
NCI-H2126	0.58	0.628	0.719	0.713	0.629	0.557	0.548	0.433	0.38	0.306	1.32	1.24	1.08	0.653	0.498	0.574	0.717	0.612	0.471	0.372
LXF-289	0.84	0.92	0.785	0.932	0.903	0.709	0.629	0.633	0.559	0.379	1.02	0.952	0.99	0.987	0.827	0.921	0.886	0.964	1.02	0.619
NCI-H2009	1.05	1.01	0.984	1.06	1.01	0.276	0.272	0.213	0.154	0.126	1.28	1.24	1.06	1.2	0.625	1.09	1.07	1	0.964	0.498
NCI-H2405	0.715	–	0.841	0.882	0.97	0.469	0.665	0.56	0.389	0.253	1.02	1.06	1.05	0.606	0.475	1.1	1.03	0.972	0.641	0.378
NCI-H1755	0.474	0.452	0.402	0.44	0.461	0.779	0.759	0.724	0.611	0.486	0.903	0.924	0.936	0.676	0.691	0.414	0.389	0.455	0.393	0.412

Source: the supplement of paper PMC10307832
